Data reported in PubChem BioAssay (NCI).
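Abbreviation: GI50, concentration required for 50% inhibition of growth. Definition used: TGI = concentration required for complete inhibition of growth.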

Key:
Assay in all cases: NCI anticancer screen, dose series, 384-well format
NCI-H460 NSCLC = test system: NCI-H460 NSCLC
KM12 colon = test system: KM12 colon
K-562 leukemia = test system: K-562 leukemia
SN12C renal = test system: SN12C renal
COLO 205 colon = test system: COLO 205 colon
HOP-62 NSCLC = test system: HOP-62 NSCLC
SK-MEL-28 melanoma = test system: SK-MEL-28 melanoma
DU-145 prostate = test system: DU-145 prostate
SNB-19 CNS = test system: SNB-19 CNS
HOP-92 NSCLC = test system: HOP-92 NSCLC
786-0 renal = test system: 786-0 renal
MDA-MB-468 breast = test system: MDA-MB-468 breast
NCI-H322M lung = test system: NCI-H322M lung
HCT-15 colon = test system: HCT-15 colon
UACC-257 melanoma = test system: UACC-257 melanoma
NCI-H23 lung = test system: NCI-H23 lung
U251 glioblastoma = test system: U251 glioblastoma
SK-MEL-2 melanoma = test system: SK-MEL-2 melanoma
M14 melanoma = test system: M14 melanoma
OVCAR-4 ovarian = test system: OVCAR-4 ovarian
PC-3 prostate = test system: PC-3 prostate
MDA-MB-231 breast = test system: MDA-MB-231 breast
MCF7 breast = test system: MCF7 breast
HT29 colon = test system: HT29 colon
OVCAR-8 ovarian = test system: OVCAR-8 ovarian
SW-620 colon = test system: SW-620 colon
CAKI-1 renal = test system: CAKI-1 renal
BT-549 breast = test system: BT-549 breast
HS 578T breast = test system: HS 578T breast
MDA-MB-435 melanoma = test system: MDA-MB-435 melanoma
MALME-3M melanoma = test system: MALME-3M melanoma
SF-295 CNS = test system: SF-295 CNS
MOLT-4 leukemia = test system: MOLT-4 leukemia
A549 NSCLC = test system: A549 NSCLC
TK-10 renal = test system: TK-10 renal
A498 renal = test system: A498 renal
SF-539 CNS = test system: SF-539 CNS
SK-MEL-5 melanoma = test system: SK-MEL-5 melanoma
HCT-116 colon = test system: HCT-116 colon
SNB-75 CNS = test system: SNB-75 CNS
UACC-62 melanoma = test system: UACC-62 melanoma
ACHN renal = test system: ACHN renal
OVCAR-5 ovarian = test system: OVCAR-5 ovarian
NCI-H226 lung = test system: NCI-H226 lung
IGROV1 ovarian = test system: IGROV1 ovarian
HL-60(TB) leukemia = test system: HL-60(TB) leukemia
SR leukemia = test system: SR leukemia
OVCAR-3 ovarian = test system: OVCAR-3 ovarian
NCI-H522 lung = test system: NCI-H522 lung
T-47D breast = test system: T-47D breast
SK-OV-3 ovarian = test system: SK-OV-3 ovarian
SF-268 CNS = test system: SF-268 CNS
UO-31 renal = test system: UO-31 renal
EKVX NSCLC = test system: EKVX NSCLC

C[C@]12CC[C@@H]3c4ccc(O)cc4C[C@@H](CCCCCCCCCS(=O)CCCC(F)(F)C(F)(F)F)[C@H]3[C@@H]1CC[C@@H]2O (some centres not stated)
GI50 (NCI-H460 NSCLC): > 100 µM
TGI (NCI-H460 NSCLC): > 100 µM
GI50 (KM12 colon): 75.8 µM
TGI (KM12 colon): > 100 µM
GI50 (K-562 leukemia): 7.51 µM
TGI (K-562 leukemia): > 100 µM
GI50 (SN12C renal): > 100 µM
TGI (SN12C renal): > 100 µM
GI50 (COLO 205 colon): 77.1 µM
TGI (COLO 205 colon): > 100 µM
GI50 (HOP-62 NSCLC): > 100 µM
TGI (HOP-62 NSCLC): > 100 µM
GI50 (SK-MEL-28 melanoma): > 100 µM
TGI (SK-MEL-28 melanoma): > 100 µM
GI50 (DU-145 prostate): > 100 µM
TGI (DU-145 prostate): > 100 µM
GI50 (SNB-19 CNS): > 100 µM
TGI (SNB-19 CNS): > 100 µM
GI50 (HOP-92 NSCLC): > 100 µM
TGI (HOP-92 NSCLC): > 100 µM
GI50 ([…]-0 renal): > 100 µM
TGI (786-0 renal): > 100 µM
GI50 (MDA-MB-468 breast): 2.37 µM
TGI (MDA-MB-468 breast): > 100 µM
GI50 (NCI-H322M lung): 76.8 µM
TGI (NCI-H322M lung): > 100 µM
GI50 (HCT-15 colon): 67.4 µM
TGI (HCT-15 colon): > 100 µM
GI50 (UACC-257 melanoma): > 100 µM
TGI (UACC-257 melanoma): > 100 µM
GI50 (NCI-H23 lung): > 100 µM
TGI (NCI-H23 lung): > 100 µM
GI50 (U251 glioblastoma): > 100 µM
TGI (U251 glioblastoma): > 100 µM
GI50 (SK-MEL-2 melanoma): > 100 µM
TGI (SK-MEL-2 melanoma): > 100 µM
GI50 (M14 melanoma): > 100 µM
TGI (M14 melanoma): > 100 µM
GI50 (OVCAR-4 ovarian): > 100 µM
TGI (OVCAR-4 ovarian): > 100 µM
GI50 (PC-3 prostate): > 100 µM
TGI (PC-3 prostate): > 100 µM
GI50 (MDA-MB-231 breast): > 100 µM
TGI (MDA-MB-231 breast): > 100 µM
TGI (MCF7 breast): > 100 µM
GI50 (HT29 colon): 49.9 µM
TGI (HT29 colon): > 100 µM
GI50 (OVCAR-8 ovarian): > 100 µM
TGI (OVCAR-8 ovarian): > 100 µM
GI50 (SW-620 colon): > 100 µM
TGI (SW-620 colon): > 100 µM
GI50 (CAKI-1 renal): > 100 µM
TGI (CAKI-1 renal): > 100 µM
GI50 (BT-549 breast): > 100 µM
TGI (BT-549 breast): > 100 µM
GI50 (HS 578T breast): > 100 µM
TGI (HS 578T breast): > 100 µM
GI50 (MDA-MB-435 melanoma): > 100 µM
TGI (MDA-MB-435 melanoma): > 100 µM
GI50 (MALME-3M melanoma): > 100 µM
TGI (MALME-3M melanoma): > 100 µM
GI50 (SF-295 CNS): 9.39 µM
TGI (SF-295 CNS): > 100 µM
GI50 (MOLT-4 leukemia): 8.42 µM
TGI (MOLT-4 leukemia): > 100 µM
GI50 (A549 NSCLC): > 100 µM
TGI (A549 NSCLC): > 100 µM
GI50 (TK-10 renal): > 100 µM
TGI (TK-10 renal): > 100 µM
GI50 (A498 renal): > 100 µM
TGI (A498 renal): > 100 µM
GI50 (SF-539 CNS): > 100 µM
TGI (SF-539 CNS): > 100 µM
GI50 (SK-MEL-5 melanoma): 27.4 µM
TGI (SK-MEL-5 melanoma): > 100 µM
GI50 (HCT-116 colon): > 100 µM
TGI (HCT-116 colon): > 100 µM
GI50 (SNB-75 CNS): > 100 µM
TGI (SNB-75 CNS): > 100 µM
GI50 (UACC-62 melanoma): > 100 µM
TGI (UACC-62 melanoma): > 100 µM
GI50 (ACHN renal): > 100 µM
TGI (ACHN renal): > 100 µM
GI50 (OVCAR-5 ovarian): > 100 µM
TGI (OVCAR-5 ovarian): > 100 µM
GI50 (NCI-H226 lung): > 100 µM
TGI (NCI-H226 lung): > 100 µM
GI50 (IGROV1 ovarian): > 100 µM
TGI (IGROV1 ovarian): > 100 µM
GI50 (HL-60(TB) leukemia): > 100 µM
TGI (HL-60(TB) leukemia): > 100 µM
GI50 (SR leukemia): > 100 µM
TGI (SR leukemia): > 100 µM
GI50 (OVCAR-3 ovarian): > 100 µM
TGI (OVCAR-3 ovarian): > 100 µM
GI50 (NCI-H522 lung): > 100 µM
TGI (NCI-H522 lung): > 100 µM
GI50 (T-47D breast): 1.93 µM
TGI (T-47D breast): > 100 µM
GI50 (SK-OV-3 ovarian): > 100 µM
TGI (SK-OV-3 ovarian): > 100 µM
GI50 (SF-268 CNS): > 100 µM
TGI (SF-268 CNS): > 100 µM
GI50 (UO-31 renal): > 100 µM
TGI (UO-31 renal): > 100 µM
GI50 (EKVX NSCLC): > 100 µM
TGI (EKVX NSCLC): > 100 µM
